The supplement of paper PMC11451515

Test system: SEM cells
Test: cell viability relative to DMSO control; higher = less cytotoxic
Conditions: 48 h
How it was run: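 Cells were incubated for 48 h at 37°C before CellTiter-Glo One luminescence was read. The cells were NOMO1 or SEM (500 cells/well) or P12-Ichikawa (1000 cells/well) leukemia cells, adapted for at least four passages in each medium and seeded in 1536-well plates (5 μl). Dosing used library compounds in DMSO applied by pin over 11 threefold points, 47 μM to 0.79 nM. Viability is the per-plate percentage of DMSO wells, with cell-free wells as background.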

[1] = HPLM + 10% dialyzed FBS, 0.000781 µM
[2] = HPLM + 10% dialyzed FBS, 0.00234 µM
[3] = HPLM + 10% dialyzed FBS, 0.00702 µM
[4] = HPLM + 10% dialyzed FBS, 0.0211 µM
[5] = HPLM + 10% dialyzed FBS, 0.0632 µM
[6] = HPLM + 10% dialyzed FBS, 0.19 µM
[7] = HPLM + 10% dialyzed FBS, 0.569 µM
[8] = HPLM + 10% dialyzed FBS, 1.71 µM
[9] = HPLM + 10% dialyzed FBS, 5.12 µM
[10] = HPLM + 10% dialyzed FBS, 15.4 µM
[11] = HPLM + 10% dialyzed FBS, 46.1 µM
[12] = RPMI 5 mM glucose + 10% FBS, 0.000781 µM
[13] = RPMI 5 mM glucose + 10% FBS, 0.00234 µM
[14] = RPMI 5 mM glucose + 10% FBS, 0.00702 µM
[15] = RPMI 5 mM glucose + 10% FBS, 0.0211 µM
[16] = RPMI 5 mM glucose + 10% FBS, 0.0632 µM
[17] = RPMI 5 mM glucose + 10% FBS, 0.19 µM
[18] = RPMI 5 mM glucose + 10% FBS, 0.569 µM
[19] = RPMI 5 mM glucose + 10% FBS, 1.71 µM
[20] = RPMI 5 mM glucose + 10% FBS, 5.12 µM
[21] = RPMI 5 mM glucose + 10% FBS, 15.4 µM
[22] = RPMI 5 mM glucose + 10% FBS, 46.1 µM
[23] = RPMI 5 mM glucose + 10% dialyzed FBS, 0.000781 µM
[24] = RPMI 5 mM glucose + 10% dialyzed FBS, 0.00234 µM
[25] = RPMI 5 mM glucose + 10% dialyzed FBS, 0.00702 µM
[26] = RPMI 5 mM glucose + 10% dialyzed FBS, 0.0211 µM
[27] = RPMI 5 mM glucose + 10% dialyzed FBS, 0.0632 µM
[28] = RPMI 5 mM glucose + 10% dialyzed FBS, 0.19 µM
[29] = RPMI 5 mM glucose + 10% dialyzed FBS, 0.569 µM
[30] = RPMI 5 mM glucose + 10% dialyzed FBS, 1.71 µM
[31] = RPMI 5 mM glucose + 10% dialyzed FBS, 5.12 µM
[32] = RPMI 5 mM glucose + 10% dialyzed FBS, 15.4 µM
[33] = RPMI 5 mM glucose + 10% dialyzed FBS, 46.1 µM

Structure (SMILES) | cell viability [1] [%] | cell viability [2] [%] | cell viability [3] [%] | cell viability [4] [%] | cell viability [5] [%] | cell viability [6] [%] | cell viability [7] [%] | cell viability [8] [%] | cell viability [9] [%] | cell viability [10] [%] | cell viability [11] [%] | cell viability [12] [%] | cell viability [13] [%] | cell viability [14] [%] | cell viability [15] [%] | cell viability [16] [%] | cell viability [17] [%] | cell viability [18] [%] | cell viability [19] [%] | cell viability [20] [%] | cell viability [21] [%] | cell viability [22] [%] | cell viability [23] [%] | cell viability [24] [%] | cell viability [25] [%] | cell viability [26] [%] | cell viability [27] [%] | cell viability [28] [%] | cell viability [29] [%] | cell viability [30] [%] | cell viability [31] [%] | cell viability [32] [%] | cell viability [33] [%]
NC(=O)c1cnc(N[C@@H]2CCCC[C@@H]2N)nc1Nc1cccc(-n2nccn2)c1 | 105 | 103 | 112 | 111 | 130 | 120 | 110 | 123 | 96.5 | 44.3 | 11.6 | 84.8 | 101 | 125 | 135 | 142 | 103 | 125 | 123 | 107 | 40.3 | 10.7 | 122 | 120 | 122 | 146 | 162 | 131 | 148 | 129 | 124 | 58.3 | 34.4
CC(=O)N(C)c1cccc(-c2ccnc3c(C(=O)c4cccs4)cnn23)c1 | 99.9 | 88.7 | 104 | 37.5 | 98.7 | 99.4 | 107 | 103 | 110 | 90 | 91.7 | 108 | 107 | 95.5 | 37.7 | 112 | 101 | 94.1 | 98.5 | 101 | 98.5 | 97 | 104 | 99.7 | 87 | 46.9 | 100 | 101 | 102 | 109 | 118 | 112 | 99.6
COC1=CC=CC=C1C2=CC=CC(=C2)C/3=C(O)/C4=CC(=C(Cl)C=C4NC3=O)C#N | 79.2 | 92.5 | 88.2 | 93.5 | 101 | 97.5 | 92.1 | 85.7 | 39.6 | 9.1 | 4.47 | 73.4 | 89.9 | 90.7 | 103 | 83 | 81.3 | 63.9 | 48 | 7.21 | 4.33 | 2.82 | 87.3 | 102 | 92.9 | 98.7 | 93.4 | 102 | 93.4 | 69 | 21.6 | 7.81 | 3.41
Cn1c(=O)c2c(ncn2C)n(C)c1=O.O=C(O)CC(O)(CC(=O)O)C(=O)O | 124 | 117 | 110 | 111 | 112 | 128 | 118 | 114 | 122 | 121 | 106 | 117 | 107 | 112 | 107 | 117 | 106 | 115 | 96.1 | 103 | 110 | 89.7 | 113 | 114 | 120 | 123 | 112 | 124 | 115 | 114 | 117 | 124 | 112
COc1cccc2cc(-c3nc(C4CCC(C(=O)O)CC4)n4ncnc(N)c34)[nH]c12 (stereo not drawn) | 118 | 132 | 124 | 107 | 107 | 101 | 74.7 | 36.2 | 28.2 | 22.6 | 16.4 |  |  |  |  |  |  |  |  |  |  |  | 111 | 133 | 118 | 114 | 96 | 99.7 | 89.3 | 52.6 | 31.5 | 22.2 | 15.8
C=C(C)[C@@H]1CC[C@]2(C(=O)O)CC[C@]3(C)[C@H](CC[C@@H]4[C@@]5(C)CC[C@H](O)C(C)(C)[C@@H]5CC[C@]43C)[C@@H]12 |  |  |  |  |  |  |  |  |  |  |  | 115 | 116 | 134 | 129 | 140 | 52.4 | 128 | 123 | 42.7 | 112 | 107 |  |  |  |  |  |  |  |  |  |  | 
Cc1c(CCOc2ccc(C(=O)O)cc2)c2cc(Cl)ccc2n1C(c1ccccc1)c1ccccc1 | 112 | 118 | 104 | 113 | 109 | 105 | 108 | 114 | 105 | 108 | 79.3 | 110 | 108 | 104 | 118 | 94.3 | 104 | 94.9 | 102 | 106 | 106 | 92.7 | 114 | 110 | 97.1 | 109 | 95.9 | 109 | 111 | 104 | 107 | 95.3 | 92.5
CC1(C)Cc2c(-c3ccccc3)c(-c3ccc(Cl)cc3)c(CC(=O)O)n2C1 | 116 | 124 | 116 | 129 | 126 | 106 | 124 | 91.9 | 124 | 112 | 95.1 | 116 | 120 | 129 | 122 | 110 | 96.3 | 105 | 92.8 | 110 | 101 | 90.7 |  |  |  |  |  |  |  |  |  |  | 
CC1CCC(C(=O)N(c2cc(C#CC(C)(C)C)sc2C(=O)O)C2CCC(O)CC2)CC1 (stereo not drawn) | 106 | 109 | 99.2 | 103 | 98 | 93.3 | 89.1 | 96 | 77.3 | 48.9 | 44.2 | 130 | 119 | 118 | 129 | 116 | 115 | 110 | 123 | 97.4 | 61.1 | 49.8 | 91.7 | 106 | 90.3 | 87.9 | 90.3 | 90.3 | 96.6 | 88.3 | 77.6 | 44.7 | 41.8
